Experimental data taken from ChEMBL document CHEMBL4823282, “Novel Broad-Spectrum Antimicrobial Peptide Derived from Anoplin and Its Activity on Bacterial Pneumonia in Mice” (J Med Chem, 2021).
pIC50: −log10 of the molar value. Activity calls are given as the source filed them. The rule behind the calls is not given here. Where a SMILES comes first, the peptide text is derived from it. Bridges are numbered along the chain shown (N, C = ends). [ ]: non-standard residue; d: D form. The star is where a group is joined. X1 = CC[C@H](C)CCCCC(=O)*; Dab = NCC[C@H](N)C(=O)O

How the values were obtained:
Staphylococcus aureus [1] = assay: Antibacterial activity against Staphylococcus aureus ATCC 25923 incubated with 0.2 to 0.02 ug/ml chymotrypsin for 6 hrs followed by bacterial addition and measured after 18 hrs by CLSI based broth dilution method; format: functional, organism-based; settings: dose 0.2-0.02 µg/ml
Staphylococcus aureus [2] = assay: Bactericidal activity against Staphylococcus aureus ATCC 25923 at 2MIC measured within 3 hrs by time-kill assay relative to control; format: functional
[3] = Stability in BALB/C mouse serum measured up to 1440 mins by HPLC analysis; format: ADME, cell-free
Klebsiella pneumoniae [4] = assay: Antibacterial activity against Klebsiella pneumoniae ATCC 700603 incubated with 0.2 to 0.02 ug/ml trypsin for 6 hrs followed by bacterial addition and measured after 18 hrs by CLSI based broth dilution method; format: functional, organism-based; settings: dose 0.2-0.02 µg/ml, time 23.0 hrs
Escherichia coli [5] = assay: Antibiofilm activity against Escherichia coli ATCC 25922 incubated for 24 hrs by crystal violet staining assay; format: functional, organism-based
Cell membrane [6] = assay: Induction of outer membrane permeabilization in Klebsiella pneumoniae ATCC 700603 measured within 1 mins by N-phenylnaphthylamine dye based fluorescent method; format: subcellular; settings: Klebsiella pneumoniae 700603
Cell membrane [7] = assay: Induction of outer membrane permeabilization in Klebsiella pneumoniae ATCC 700603 at 2 to 4 MIC by N-phenylnaphthylamine dye based fluorescent method; format: subcellular; settings: Klebsiella pneumoniae 700603, 2 to 4 M
Klebsiella pneumoniae [8] = assay: Antibiofilm activity against Klebsiella pneumoniae ATCC 700603 incubated for 24 hrs by crystal violet staining based assay; format: functional, organism-based
Lipopolysaccharide (LPS) = assay: Binding affinity to LPS (unknown origin) assessed as bacterial killing at 2 times MIC preincubated for 1 hr followed by Escherichia coli ATCC 25922 addition and measured after 2 hrs by absorbance method relative to polymyxin B; settings: time 3.0 hrs
Staphylococcus aureus [9] = assay: Disruption of membrane integrity in Staphylococcus aureus ATCC 25923 assessed as pore formation at 1 times MIC incubated for 0.5 to 2 hrs by scanning electron microscopy; format: functional, organism-based; settings: time 0.5-2 hrs
Staphylococcus aureus [10] = assay: Disruption of membrane integrity in Staphylococcus aureus ATCC 25923 assessed as content leakage at 1 times MIC incubated for 0.5 to 2 hrs by scanning electron microscopy; format: functional, organism-based; settings: time 0.5-2 hrs
Klebsiella pneumoniae [11] = assay: Disruption of membrane integrity in Klebsiella pneumoniae ATCC 700603 assessed as membrane creeping at 1 times MIC incubated for 0.5 to 2 hrs by scanning electron microscopy; format: functional, organism-based; settings: time 0.5-2 hrs
Klebsiella pneumoniae [12] = assay: Disruption of membrane integrity in Klebsiella pneumoniae ATCC 700603 assessed as pore formation at 1 times MIC incubated for 0.5 to 2 hrs by scanning electron microscopy; format: functional, organism-based; settings: time 0.5-2 hrs
Klebsiella pneumoniae [13] = assay: Disruption of membrane integrity in Klebsiella pneumoniae ATCC 700603 assessed as content leakage at 1 times MIC incubated for 0.5 to 2 hrs by scanning electron microscopy; format: functional, organism-based; settings: time 0.5-2 hrs
Staphylococcus aureus [14] = assay: Drug localization in surface of Staphylococcus aureus ATCC 25923 at 2 times MIC incubated for 30 mins using ACD-labeled compound by PI-staining based laser scanning confocal microscopic analysis; format: functional, organism-based
Escherichia coli [15] = assay: Synergistic antibacterial activity against Escherichia coli ATCC 25922 at 2 times MIC incubated for 18 to 24 hrs in presence of 2 times MIC of polymyxin B by broth microdilution assay based checkerboard assay; format: functional; settings: time 18-24 hrs
Escherichia coli [16] = assay: Synergistic antibacterial activity against Escherichia coli ATCC 25922 at 2 times MIC incubated for 18 to 24 hrs in presence of 2 times MIC of gentamycin by broth microdilution assay based checkerboard assay; format: functional; settings: time 18-24 hrs
Pseudomonas aeruginosa = assay: Antibacterial activity against Pseudomonas aeruginosa ATCC 27853 at sub-MIC level after 15 passages by broth microdilution assay; format: functional, organism-based
[17] = Toxicity in BALB/C mouse assessed as effect on heart at 19 mg/kg, ip administered as single dose by hematoxylin and eosin staining based assay; format: organism-based; settings: in vivo
Klebsiella pneumoniae [18] = assay: Antibacterial activity against Klebsiella pneumoniae ATCC 700603 infected in BALB/C mouse assessed as reduction in inflammatory response at 5 to 10 mg/kg, ip by hematoxylin and eosin staining based assay; format: functional, organism-based; settings: dose 5-10 mg/kg
Klebsiella pneumoniae [19] = assay: Antibacterial activity against Klebsiella pneumoniae ATCC 700603 infected in BALB/C mouse assessed as reduction in bacterial load at 5 to 10 mg/kg, ip by hematoxylin and eosin staining based assay; format: functional, organism-based; settings: dose 5-10 mg/kg
[20] = Toxicity in BALB/C mouse assessed as effect on lung at 19 mg/kg, ip administered as single dose by hematoxylin and eosin staining based assay; format: organism-based; settings: in vivo
[21] = Toxicity in BALB/C mouse assessed as effect on liver at 19 mg/kg, ip administered as single dose by hematoxylin and eosin staining based assay; format: organism-based; settings: in vivo
[22] = Toxicity in BALB/C mouse assessed as effect on spleen at 19 mg/kg, ip administered as single dose by hematoxylin and eosin staining based assay; format: organism-based; settings: in vivo
[23] = Toxicity in BALB/C mouse assessed as effect on kidney at 19 mg/kg, ip administered as single dose by hematoxylin and eosin staining based assay; format: organism-based; settings: in vivo
[24] = Toxicity in BALB/C mouse assessed as induction of tissue hemorrhage at 19 mg/kg, ip administered as single dose by hematoxylin and eosin staining based assay; format: organism-based; settings: in vivo
[25] = Toxicity in BALB/C mouse assessed as induction of inflammatory reaction at 19 mg/kg, ip administered as single dose by hematoxylin and eosin staining based assay; format: organism-based; settings: in vivo
[26] = Induction of nephrotoxicity in BALB/C mouse at 82 mg/kg, ip administered as single dose by hematoxylin and eosin staining based assay; format: organism-based; settings: in vivo
[27] = Induction of inflammation in BALB/C mouse at 82 mg/kg, ip administered as single dose by hematoxylin and eosin staining based assay; format: organism-based; settings: in vivo
HK-2 = assay: Cytotoxicity against human HK2 cells incubated for 12 hrs by MTT assay; format: cell-based; settings: HK-2, 12 h
Klebsiella pneumoniae [28] = assay: Antibacterial activity against Klebsiella pneumoniae ATCC 700603 incubated with 2000 ug/ml chymotrypsin for 6 hrs followed by bacterial addition and measured after 18 hrs by CLSI based broth dilution method; format: functional, organism-based; settings: dose 2000.0 µg/ml, time 23.0 hrs
Staphylococcus aureus [29] = assay: Antibacterial activity against Staphylococcus aureus ATCC 25923 incubated with 2000 ug/ml trypsin for 6 hrs followed by bacterial addition and measured after 18 hrs by CLSI based broth dilution method; format: functional, organism-based; settings: dose 2000.0 µg/ml, time 23.0 hrs
Cell membrane [30] = assay: Disruption of membrane integrity in Klebsiella pneumoniae ATCC 700603 assessed as membrane cracking at 1 times MIC incubated for 0.5 to 2 hrs by scanning electron microscopy; format: subcellular; settings: Klebsiella pneumoniae 700603, time 0.5-2 hrs
Klebsiella pneumoniae [31] = assay: Reduction in inflammatory cell infiltration in lung of BALB/C mouse infected with Klebsiella pneumoniae ATCC 700603 at 5 mg/kg, ip by hematoxylin and eosin staining based assay; format: functional, organism-based
Klebsiella pneumoniae [32] = assay: Antibacterial activity against Klebsiella pneumoniae ATCC 700603 infected in BALB/C mouse assessed as reduction in inflammatory cell infiltration in […] at 5 mg/kg, ip by hematoxylin and eosin staining based assay; format: functional, organism-based
[33] = Toxicity in BALB/C mouse infected with Klebsiella pneumoniae ATCC 700603 assessed as hepatic hemorrhage at 5 mg/kg, ip by hematoxylin and eosin staining based assay; format: organism-based; settings: in vivo

NCCCC[C@H](NC(=O)[C@H](CCCCN)NC(=O)[C@H](Cc1c[nH]c2ccccc12)NC(=O)[C@H](CCCCN)NC(=O)[C@H](CCCCN)NC(=O)[C@H](Cc1c[nH]c2ccccc12)NC(=O)[C@H](Cc1c[nH]c2ccccc12)NC(=O)[C@@H](N)CCCCN)C(=O)N[C@@H](Cc1c[nH]c2ccccc12)C(=O)N[C@@H](Cc1c[nH]c2ccccc12)C(N)=O (H-KWWKKWKKWW-NH2)
Activity (Staphylococcus aureus [1]): inactive
Activity (Staphylococcus aureus [2]): 100%
half-life [3]: 50.1 min
Activity (Klebsiella pneumoniae [4]): Active
Activity (Escherichia coli [5]): Dose-Dependent Effect
Activity (Cell membrane [6]): Dose-Dependent Effect
Activity (Cell membrane [7]): Active
Activity (Klebsiella pneumoniae [8]): Dose-Dependent Effect
fold change (FC) (Lipopolysaccharide (LPS)): 2
Activity (Staphylococcus aureus [9]): Active
Activity (Staphylococcus aureus [10]): Active
Activity (Klebsiella pneumoniae [11]): Active
Activity (Klebsiella pneumoniae [12]): Active
Activity (Klebsiella pneumoniae [13]): Active
Activity (Staphylococcus aureus [14]): Active
FIC (Escherichia coli [15]): 0.3125
FIC (Escherichia coli [16]): 0.5625
Activity (Pseudomonas aeruginosa): Active
Activity [17]: Toxic
Activity (Klebsiella pneumoniae [18]): Active
Activity (Klebsiella pneumoniae [19]): Active
Activity [20]: Toxic
Activity [21]: Toxic
Activity [22]: Toxic
Activity [23]: Toxic
Activity [24]: Toxic
Activity [25]: Toxic
Activity [26]: Toxic
Activity [27]: Toxic
pIC50 (HK-2): 4.20

CC[C@H](C)CCCCC(=O)N[C@@H](CCN)C(=O)N[C@H](C(=O)N[C@@H](CCN)C(=O)N[C@H]1CCNC(=O)[C@H]([C@@H](C)O)NC(=O)[C@H](CCN)NC(=O)[C@H](CCN)NC(=O)[C@H](CC(C)C)NC(=O)[C@@H](Cc2ccccc2)NC(=O)[C@H](CCN)NC1=O)[C@@H](C)O (X1-[Dab]T[Dab][Dab][Dab][dF]L[Dab][Dab]T; lactam 4-C)
Activity (Klebsiella pneumoniae [28]): Active
Activity (Staphylococcus aureus [29]): Active
Activity (Cell membrane [30]): Active
Activity (Klebsiella pneumoniae [31]): inactive
Activity (Klebsiella pneumoniae [32]): inactive
Activity [33]: Toxic
